Results reported in ChEMBL document CHEMBL1201862, “PubChem BioAssay data set” (2004).
Activity calls are given as the source filed them.

Experiments:
[1] = cells; type: functional, cell-based; conditions: HEK-CNG
[2] = biological target: Galanin receptor type 3 (Homo sapiens, UniProt O60755); test: Fluorescence-based cell-based primary high throughput dose response assay to identify antagonists of the Galanin Receptor 3 (GalR3).; type: functional
[3] = human group III sPLA2 inhibitors, dose response, biochemical, QFRET, IC50 (AID 743457);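 also: green fluorescence rise as the enzyme cleaves BODIPY PC-A2 in liposomes; potency for inhibition of the enzyme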
[4] = biological target: T1, Trace amine-associated receptor 1 (Homo sapiens, UniProt Q96RJ0); test: Fluorescence-based cell-based high throughput dose response assay to identify agonists of the human trace amine associated receptor 1 (TAAR1).; type: functional
T1 sequence (Q96RJ0 whole entry): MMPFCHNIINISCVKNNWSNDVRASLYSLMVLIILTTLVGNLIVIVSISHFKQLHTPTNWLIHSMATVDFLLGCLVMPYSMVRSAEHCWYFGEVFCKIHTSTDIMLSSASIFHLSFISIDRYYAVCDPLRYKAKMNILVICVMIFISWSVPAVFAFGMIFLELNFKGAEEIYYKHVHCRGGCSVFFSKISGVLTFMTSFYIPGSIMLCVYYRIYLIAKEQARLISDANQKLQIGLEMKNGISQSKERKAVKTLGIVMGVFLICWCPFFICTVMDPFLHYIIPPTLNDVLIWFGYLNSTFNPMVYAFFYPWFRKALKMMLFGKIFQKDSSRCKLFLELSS

[5] = cells; type: functional, cell-based
[6] = cells; type: functional, cell-based; remark: listed apart in the source
[7] = biological target: T1, Trace amine-associated receptor 1; test: Counterscreen for agonists of the human trace amine associated receptor 1 (hTAAR1): Fluorescence-based cell-based high throughput dose response assay to identify hTAAR1 agonist that also desensitize TAAR1 receptor response.; type: functional
[8] = biological target: T2, Small ubiquitin-related modifier 1 (Homo sapiens, UniProt P63165); test: inhibitors of SUMO1 peptide binding, dose response, biochemical, fluorescence polarization, uHTS hits (AID 624382); type: functional; conditions: read-out: IC50_Mean
[9] = biological target: Induced myeloid leukemia cell differentiation protein Mcl-1 (Homo sapiens, UniProt Q07820); type: functional
[10] = biological target: T2, Small ubiquitin-related modifier 1; test: inhibitors of SUMO1 partner interactions, dose response, biochemical, FRET (AID 624383); type: functional; conditions: read-out: IC50_Mean
[11] = tested on: INS1; test: beta cell apoptosis inhibitors, cytokine rescue, dose response, luminescence, retest (AID 449756); type: functional, cell-based; conditions: Rattus norvegicus;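 also: cell death triggered by IL-1 beta plus TNF-alpha plus IFN-gamma mixture; protective hits raise ATP signal compared with cytokine alone wells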
[12] = biological target: T3, COUP transcription factor 2 (Homo sapiens, UniProt P24468); test: Luminescence-based cell-based high throughput dose response assay to identify inhibitors of COUP-TFII (NR2F2).; type: functional;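 also: HEK293 cells transiently cotransfected with COUP-TFII expression vector and reporter; luciferase reporter luminescence driven by COUP-TFII from the pX2-168 reporter plasmid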
T3 sequence (P24468 whole entry): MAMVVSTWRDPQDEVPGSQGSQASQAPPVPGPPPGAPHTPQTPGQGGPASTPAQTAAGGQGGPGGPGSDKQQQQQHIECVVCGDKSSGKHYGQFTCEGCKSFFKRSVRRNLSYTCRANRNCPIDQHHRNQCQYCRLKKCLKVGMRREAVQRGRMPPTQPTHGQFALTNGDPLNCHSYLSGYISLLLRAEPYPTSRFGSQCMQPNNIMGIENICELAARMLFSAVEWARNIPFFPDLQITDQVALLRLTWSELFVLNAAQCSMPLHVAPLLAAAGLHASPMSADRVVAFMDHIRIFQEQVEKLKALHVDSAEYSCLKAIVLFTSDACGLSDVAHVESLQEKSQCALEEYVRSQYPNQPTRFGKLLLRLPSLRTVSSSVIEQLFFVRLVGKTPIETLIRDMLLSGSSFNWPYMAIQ

[13] = control 3'UTR Renilla luciferase suppression, dose response, counter-screen for Shn3 inhibitor project, cell-based, Clone20-Shn3RL, cherry-picked (AID 624133); type: functional
[14] = HepG2 cell cytotoxicity, dose response, cytotoxicity control for Shn3 inhibitor project, CellTiter-Glo, cherry-picked (AID 624134); type: functional, cell-based
[15] = Shn3 3'UTR reporter inhibitors, dose response, cell-based, Clone20 osteoblasts, firefly luciferase, cherry-picked (AID 624132); type: functional;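 also: firefly luciferase luminescence from reporter carrying the Shn3 3'UTR in osteoblasts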
[16] = biological target: 72 kDa type IV collagenase (Homo sapiens, UniProt P08253); test: Dose Response validation of uHTS RPN11 inhibitor hits using a MMP-2 Fluorescence assay.; type: functional
[17] = biological target: T4, Low molecular weight phosphotyrosine protein phosphatase (Homo sapiens, UniProt P24666); type: functional; conditions: read-out: IC50_Mean
T4 sequence (P24666 whole entry): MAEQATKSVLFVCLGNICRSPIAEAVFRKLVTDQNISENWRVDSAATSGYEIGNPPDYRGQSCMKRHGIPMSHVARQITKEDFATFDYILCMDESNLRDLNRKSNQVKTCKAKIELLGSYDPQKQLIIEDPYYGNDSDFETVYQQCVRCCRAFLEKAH

[18] = biological target: Beta-lactamase (Pseudomonas aeruginosa, UniProt Q79MP6);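 also: biochemical dose-response test of metallo-beta-lactamase enzyme inhibition, read out by epi-absorbance; purified recombinant IMP-1 metallo-beta-lactamase with nitrocefin as substrate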
[19] = biological target: Beta Lactamase (Pseudomonas aeruginosa, UniProt Q932Y6);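 also: confirmatory high-throughput screen measuring VIM-2 metallo-beta-lactamase inhibition by epi-absorbance in dose response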
[20] = biological target: Prothrombin (Bos taurus, UniProt P00735); test: thrombin inhibition, dose response, biochemical, fluorescence polarization, uHTS hits (AID 602369); type: functional
[21] = biological target: 26S proteasome non-ATPase regulatory subunit 14 (Homo sapiens, UniProt O00487); test: inhibition of proteasome subunit RPN11 – biochemical, fluorescence polarization, uHTS hits, confirmation (AID 602368); type: functional
[22] = biological target: T4, Low molecular weight phosphotyrosine protein phosphatase; type: functional; conditions: read-out: IC50_Mean; remark: listed apart in the source
[23] = biological target: Beta-lactamase (Salmonella choleraesuis (strain SC-B67), UniProt Q5J463)
[24] = MC4R antagonists, dose response, counter-screen for LGR2 antagonist project, cell-based, plate reader, cherry pick (AID 743444); type: functional;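 also: transfected HEK 293 cells stimulated with alpha-MSH peptide; potency of inhibitors of the alpha-MSH evoked signal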
[25] = HEK293 cell cytotoxicity, dose response, cytotoxicity control, plate reader, cherry-picked samples (AID 743446); type: functional, cell-based
[26] = HepG2 cell cytotoxicity, dose response, cytotoxicity control, plate reader, cherry-pick, antagonist series (AID 743416); type: functional, cell-based
[27] = LGR2 antagonists, dose response, cell-based, HEK293, CRE-luciferase reporter, cherry pick, set 2 (AID 743343); type: functional;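 also: transfected cells were stimulated with diluted bursicon conditioned medium after compound addition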
[28] = A549 cell cytotoxicity, dose response, cytotoxicity control, plate reader, cherry-pick, antagonist series (AID 743412); type: functional, cell-based
[29] = biological target: Beta-galactosidase (Escherichia coli, UniProt Q8VNN2); test: Dose response counterscreen for EBI2 assay utilizing the enzyme, b-galactosidase.; type: functional
[30] = biological target: T5, Sentrin-specific protease 8 (Homo sapiens, UniProt Q96LD8); type: functional
T5 sequence (Q96LD8 whole entry): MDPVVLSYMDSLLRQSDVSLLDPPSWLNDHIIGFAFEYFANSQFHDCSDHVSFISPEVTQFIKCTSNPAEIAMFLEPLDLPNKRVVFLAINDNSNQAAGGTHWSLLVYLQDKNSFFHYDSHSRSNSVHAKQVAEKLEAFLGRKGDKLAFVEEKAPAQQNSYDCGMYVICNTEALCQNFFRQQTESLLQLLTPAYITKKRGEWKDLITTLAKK

[31] = biological target: T5, Sentrin-specific protease 8; type: functional; remark: listed apart in the source
[32] = biological target: ADP-ribosylation factor GTPase-activating protein 1 (Rattus norvegicus, UniProt Q62848); test: Fluorescence polarization-based biochemical high throughput dose response screening assay to identify inhibitors of ADP-ribosylation factor GTPase activating protein 1 (ARFGAP1).; type: functional
[33] = biological target: Mu-type opioid receptor (Homo sapiens, UniProt P35372); type: functional, cell-based;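 also: U2OS cells with beta-arrestin recruitment to OPRM1 by beta-gal complementation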
[34] = biological target: 5-hydroxytryptamine receptor 2A (Mus musculus, UniProt P35363); type: functional, cell-based;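 also: CHO-K1 cells with tagged receptor and beta-arrestin; agonist potency measured as compound-induced activation of the receptor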
[35] = cells; type: functional, cell-based; remark: listed apart in the source
[36] = biological target: T6, Nuclear receptor subfamily 0 group B member 1 (Homo sapiens, UniProt P51843); type: functional, cell-based;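 also: HEK293T cells transfected with SF-1 and DAX-1 plus StAR promoter luciferase reporter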
T6 sequence (P51843 whole entry): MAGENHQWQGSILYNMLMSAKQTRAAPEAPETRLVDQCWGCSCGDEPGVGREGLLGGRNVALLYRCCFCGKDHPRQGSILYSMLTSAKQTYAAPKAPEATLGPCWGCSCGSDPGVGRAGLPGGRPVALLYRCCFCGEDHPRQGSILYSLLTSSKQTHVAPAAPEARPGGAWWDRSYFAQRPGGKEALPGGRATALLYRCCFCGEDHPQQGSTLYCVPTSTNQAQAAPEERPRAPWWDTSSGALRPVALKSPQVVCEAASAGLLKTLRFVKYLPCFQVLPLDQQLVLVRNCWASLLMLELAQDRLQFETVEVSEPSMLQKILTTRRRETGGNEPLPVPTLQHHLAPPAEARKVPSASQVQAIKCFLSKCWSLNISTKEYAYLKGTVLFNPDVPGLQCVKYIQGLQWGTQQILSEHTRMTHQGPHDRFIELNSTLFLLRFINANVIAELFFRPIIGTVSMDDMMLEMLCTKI

[37] = biological target: T7, Voltage-gated N-type calcium channel alpha-1B subunit/Amyloid beta A4 precursor protein-binding family A member 1 (Homo sapiens, UniProt Q00975+Q02410); type: protein assay
[38] = biological target: T7, Voltage-gated N-type calcium channel alpha-1B subunit/Amyloid beta A4 precursor protein-binding family A member 1; type: protein assay; remark: listed apart in the source
[39] = biological target: T8, Rac GTPase-activating protein 1 (Homo sapiens, UniProt Q9H0H5); test: MgcRacGAP GTPase-activating activity inhibitors, confirmation, biochemical, ADP Hunter fluorescence, primary and confirmatory (AID 624330); type: functional
T8 sequence (Q9H0H5 whole entry): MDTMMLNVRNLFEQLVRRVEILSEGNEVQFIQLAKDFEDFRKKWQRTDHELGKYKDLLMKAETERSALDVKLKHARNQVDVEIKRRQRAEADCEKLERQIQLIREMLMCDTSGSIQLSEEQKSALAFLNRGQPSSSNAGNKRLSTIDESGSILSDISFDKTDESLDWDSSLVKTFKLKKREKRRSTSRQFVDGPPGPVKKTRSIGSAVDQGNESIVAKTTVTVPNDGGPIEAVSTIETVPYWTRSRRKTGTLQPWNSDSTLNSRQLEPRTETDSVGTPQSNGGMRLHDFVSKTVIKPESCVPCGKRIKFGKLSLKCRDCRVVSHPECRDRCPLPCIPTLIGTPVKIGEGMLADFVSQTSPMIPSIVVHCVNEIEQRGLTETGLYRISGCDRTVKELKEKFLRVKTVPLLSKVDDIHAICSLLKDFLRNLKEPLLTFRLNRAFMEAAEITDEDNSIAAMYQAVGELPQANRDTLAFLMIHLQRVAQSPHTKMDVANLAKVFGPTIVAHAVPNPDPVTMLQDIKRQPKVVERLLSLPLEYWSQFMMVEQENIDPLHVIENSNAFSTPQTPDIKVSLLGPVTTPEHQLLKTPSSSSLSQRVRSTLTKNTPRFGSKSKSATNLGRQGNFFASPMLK

T2 sequence (P63165 whole entry): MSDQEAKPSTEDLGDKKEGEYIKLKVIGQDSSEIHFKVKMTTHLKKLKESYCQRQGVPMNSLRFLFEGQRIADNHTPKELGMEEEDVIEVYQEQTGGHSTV
Galanin receptor type 3, sequence (O60755 whole entry): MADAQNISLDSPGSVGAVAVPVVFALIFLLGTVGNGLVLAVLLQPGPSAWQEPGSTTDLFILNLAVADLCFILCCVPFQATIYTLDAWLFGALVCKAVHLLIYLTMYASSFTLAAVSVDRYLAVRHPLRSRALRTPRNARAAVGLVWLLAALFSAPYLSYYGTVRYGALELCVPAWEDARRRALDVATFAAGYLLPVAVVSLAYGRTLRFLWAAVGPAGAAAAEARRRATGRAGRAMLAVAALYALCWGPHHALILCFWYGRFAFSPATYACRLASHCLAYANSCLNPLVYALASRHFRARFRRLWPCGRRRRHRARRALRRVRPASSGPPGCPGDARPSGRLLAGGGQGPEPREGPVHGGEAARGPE
T7 sequence (Q00975 whole entry): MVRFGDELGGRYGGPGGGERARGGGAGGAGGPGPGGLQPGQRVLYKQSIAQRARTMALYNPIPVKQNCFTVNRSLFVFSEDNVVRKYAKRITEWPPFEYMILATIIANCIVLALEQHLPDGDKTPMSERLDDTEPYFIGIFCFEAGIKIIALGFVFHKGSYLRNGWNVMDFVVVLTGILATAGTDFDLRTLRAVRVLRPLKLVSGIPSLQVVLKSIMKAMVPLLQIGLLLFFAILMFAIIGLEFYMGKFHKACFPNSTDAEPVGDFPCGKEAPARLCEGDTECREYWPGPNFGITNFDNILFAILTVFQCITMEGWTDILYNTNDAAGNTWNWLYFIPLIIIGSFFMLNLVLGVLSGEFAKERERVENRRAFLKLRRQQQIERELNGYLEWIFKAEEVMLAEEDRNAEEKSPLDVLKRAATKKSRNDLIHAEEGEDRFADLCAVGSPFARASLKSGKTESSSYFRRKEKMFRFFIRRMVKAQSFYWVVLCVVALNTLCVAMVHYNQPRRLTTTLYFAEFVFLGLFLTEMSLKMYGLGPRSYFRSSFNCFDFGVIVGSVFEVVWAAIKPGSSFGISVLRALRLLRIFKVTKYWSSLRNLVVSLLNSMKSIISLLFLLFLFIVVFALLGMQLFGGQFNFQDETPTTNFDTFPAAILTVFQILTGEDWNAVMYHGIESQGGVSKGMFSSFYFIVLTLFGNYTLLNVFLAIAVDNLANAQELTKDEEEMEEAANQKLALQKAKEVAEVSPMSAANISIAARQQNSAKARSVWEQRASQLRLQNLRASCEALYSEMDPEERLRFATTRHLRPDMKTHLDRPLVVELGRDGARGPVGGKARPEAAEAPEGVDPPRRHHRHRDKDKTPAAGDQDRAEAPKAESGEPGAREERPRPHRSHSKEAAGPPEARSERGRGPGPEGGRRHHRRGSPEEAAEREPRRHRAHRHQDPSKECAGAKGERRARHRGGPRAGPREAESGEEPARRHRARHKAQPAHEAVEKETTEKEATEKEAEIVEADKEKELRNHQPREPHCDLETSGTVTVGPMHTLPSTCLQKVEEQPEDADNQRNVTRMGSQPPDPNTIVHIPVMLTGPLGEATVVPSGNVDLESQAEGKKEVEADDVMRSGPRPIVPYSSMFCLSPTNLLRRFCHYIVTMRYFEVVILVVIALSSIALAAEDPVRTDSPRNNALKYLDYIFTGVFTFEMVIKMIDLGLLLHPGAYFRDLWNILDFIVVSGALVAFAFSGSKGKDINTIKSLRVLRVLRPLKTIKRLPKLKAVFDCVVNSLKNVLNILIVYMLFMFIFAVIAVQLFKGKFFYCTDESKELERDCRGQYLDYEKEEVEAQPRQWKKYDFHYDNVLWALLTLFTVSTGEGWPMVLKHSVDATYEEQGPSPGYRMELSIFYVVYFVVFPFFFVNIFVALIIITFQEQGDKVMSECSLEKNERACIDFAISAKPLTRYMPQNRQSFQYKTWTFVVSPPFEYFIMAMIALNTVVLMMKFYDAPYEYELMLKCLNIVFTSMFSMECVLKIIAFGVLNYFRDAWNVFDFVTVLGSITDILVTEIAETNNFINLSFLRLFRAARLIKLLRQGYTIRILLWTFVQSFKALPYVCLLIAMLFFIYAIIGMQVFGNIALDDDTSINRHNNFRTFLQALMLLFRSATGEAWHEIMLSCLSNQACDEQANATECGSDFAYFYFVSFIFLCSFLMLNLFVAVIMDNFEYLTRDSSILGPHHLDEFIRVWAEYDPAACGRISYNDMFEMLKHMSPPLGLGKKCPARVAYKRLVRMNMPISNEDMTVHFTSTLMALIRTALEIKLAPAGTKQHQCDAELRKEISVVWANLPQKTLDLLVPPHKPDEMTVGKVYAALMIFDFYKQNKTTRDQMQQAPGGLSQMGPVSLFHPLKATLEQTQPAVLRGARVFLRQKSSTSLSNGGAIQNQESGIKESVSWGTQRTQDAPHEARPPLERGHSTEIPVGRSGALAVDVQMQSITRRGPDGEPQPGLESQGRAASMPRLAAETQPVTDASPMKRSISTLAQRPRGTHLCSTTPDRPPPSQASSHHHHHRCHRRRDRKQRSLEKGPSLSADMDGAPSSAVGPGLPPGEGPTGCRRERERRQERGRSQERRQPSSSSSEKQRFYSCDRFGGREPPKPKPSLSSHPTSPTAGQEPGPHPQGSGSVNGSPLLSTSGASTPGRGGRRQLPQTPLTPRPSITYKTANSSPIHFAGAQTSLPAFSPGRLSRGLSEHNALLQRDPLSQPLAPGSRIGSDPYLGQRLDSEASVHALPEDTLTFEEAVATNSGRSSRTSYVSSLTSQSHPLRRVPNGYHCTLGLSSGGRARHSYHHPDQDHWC
T7 sequence (Q02410 whole entry): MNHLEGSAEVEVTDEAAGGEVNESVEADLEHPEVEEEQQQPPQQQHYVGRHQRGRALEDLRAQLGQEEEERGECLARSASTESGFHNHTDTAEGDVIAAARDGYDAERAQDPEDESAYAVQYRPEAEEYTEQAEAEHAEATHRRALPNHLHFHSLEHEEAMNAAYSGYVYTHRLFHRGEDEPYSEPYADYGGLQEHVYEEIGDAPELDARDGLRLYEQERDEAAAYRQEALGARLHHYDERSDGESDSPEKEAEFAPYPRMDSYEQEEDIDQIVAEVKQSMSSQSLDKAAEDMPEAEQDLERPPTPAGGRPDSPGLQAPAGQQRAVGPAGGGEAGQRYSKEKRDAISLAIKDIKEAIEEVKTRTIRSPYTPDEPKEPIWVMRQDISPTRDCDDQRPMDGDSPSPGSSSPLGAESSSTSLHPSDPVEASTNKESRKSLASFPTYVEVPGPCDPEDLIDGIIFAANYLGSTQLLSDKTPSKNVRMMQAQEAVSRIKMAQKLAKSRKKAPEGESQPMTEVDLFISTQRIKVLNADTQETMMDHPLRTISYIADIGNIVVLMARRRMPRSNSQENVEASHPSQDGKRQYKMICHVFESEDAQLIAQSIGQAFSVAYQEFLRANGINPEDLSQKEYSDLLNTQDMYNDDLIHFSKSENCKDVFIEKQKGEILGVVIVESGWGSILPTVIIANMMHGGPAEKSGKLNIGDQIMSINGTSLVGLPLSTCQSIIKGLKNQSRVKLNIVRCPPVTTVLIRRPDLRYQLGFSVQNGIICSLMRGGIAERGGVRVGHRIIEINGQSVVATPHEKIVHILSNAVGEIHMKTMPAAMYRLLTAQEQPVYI
Beta Lactamase, sequence (Q932Y6 whole entry): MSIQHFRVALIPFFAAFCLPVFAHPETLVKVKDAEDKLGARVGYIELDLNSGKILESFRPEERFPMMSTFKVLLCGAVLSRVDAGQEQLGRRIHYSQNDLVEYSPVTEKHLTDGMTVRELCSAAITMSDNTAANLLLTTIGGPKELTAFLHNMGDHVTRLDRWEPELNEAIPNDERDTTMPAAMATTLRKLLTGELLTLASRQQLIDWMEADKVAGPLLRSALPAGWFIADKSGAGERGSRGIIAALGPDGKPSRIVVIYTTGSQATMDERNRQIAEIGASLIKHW
Beta-galactosidase, sequence (Q8VNN2 whole entry): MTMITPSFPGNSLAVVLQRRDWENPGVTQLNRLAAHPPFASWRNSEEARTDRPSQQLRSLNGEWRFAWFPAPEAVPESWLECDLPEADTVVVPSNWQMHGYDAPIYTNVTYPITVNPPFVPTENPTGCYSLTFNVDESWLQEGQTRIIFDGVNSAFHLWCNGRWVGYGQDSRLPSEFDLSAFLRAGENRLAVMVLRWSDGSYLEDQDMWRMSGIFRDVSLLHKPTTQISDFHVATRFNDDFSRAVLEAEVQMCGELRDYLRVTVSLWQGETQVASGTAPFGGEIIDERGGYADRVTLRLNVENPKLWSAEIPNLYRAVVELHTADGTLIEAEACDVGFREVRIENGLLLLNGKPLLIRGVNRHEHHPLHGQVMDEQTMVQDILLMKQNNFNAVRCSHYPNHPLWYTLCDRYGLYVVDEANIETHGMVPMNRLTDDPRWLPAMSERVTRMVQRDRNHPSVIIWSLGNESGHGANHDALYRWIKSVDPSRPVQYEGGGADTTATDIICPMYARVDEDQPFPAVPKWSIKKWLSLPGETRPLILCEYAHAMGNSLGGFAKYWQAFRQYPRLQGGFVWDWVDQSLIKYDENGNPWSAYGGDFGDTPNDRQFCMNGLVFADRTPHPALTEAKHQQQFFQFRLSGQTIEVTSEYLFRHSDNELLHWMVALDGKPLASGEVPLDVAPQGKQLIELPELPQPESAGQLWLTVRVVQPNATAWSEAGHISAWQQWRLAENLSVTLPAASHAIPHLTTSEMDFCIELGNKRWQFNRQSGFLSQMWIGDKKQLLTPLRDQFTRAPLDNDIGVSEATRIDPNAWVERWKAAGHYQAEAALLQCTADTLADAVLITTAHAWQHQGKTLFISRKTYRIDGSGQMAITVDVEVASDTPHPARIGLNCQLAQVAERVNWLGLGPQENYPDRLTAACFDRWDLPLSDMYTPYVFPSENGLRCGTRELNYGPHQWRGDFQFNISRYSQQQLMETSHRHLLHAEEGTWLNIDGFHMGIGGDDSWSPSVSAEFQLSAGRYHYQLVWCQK

With `Cc1ccc(-c2sc(C(=O)NN)c(C)c2C#N)cc1` the EC50 [1] was > 29.9 µM (inactive) and the IC50 [2] was > 29.9 µM (inactive).
In the case of `Cc1ccccc1OCCCN1C(=O)C(=O)c2cccc(C)c21`, the IC50 [3] is reported as > 122 µM (inactive).
In the case of `O=C(NCCc1ccccc1Cl)[C@@H]1CCCN1C(=O)[C@@H](NS(=O)(=O)c1ccc(F)cc1F)c1ccccc1`, the EC50 [4] is reported as 12.4 µM (inactive), the IC50 [5] is reported as > 29.9 µM (inactive) and the EC50 [6] is reported as > 29.9 µM (inactive). The IC50 [7] was 5.69 µM (active).
For `O=C(NC1CC1)c1cc(-c2ccco2)nc2ccccc12`, the IC50 [8] was > 66.6 µM (inactive), the IC50 [9] was 1.71 µM (active) and the IC50 [10] was 8.06 µM (active).
In the case of `O=C(CSc1nnc(Cn2nnc3ccccc32)o1)N(Cc1ccc(Cl)cc1)c1ccccc1`, the AC50 [11] is reported as 4.83 µM (active), the IC50 [12] is reported as 4.19 µM (active) and the EC50 [1] is reported as > 29.9 µM (inactive). For the same compound, the IC50 [2] was 1.11 µM (active), the AC50 [13] was 11.9 µM (active) and the AC50 [14] was 6.74 µM (active). For the same compound, the AC50 [15] was 2.29 µM (active).
For `COc1ccc(/C(C)=N/NC(=O)c2nnn(-c3nonc3N)c2-c2ccccc2)cc1`, the IC50 [16] was 8.15 µM (active), the IC50 [17] was 35.2 µM (inactive) and the IC50 [18] was > 59.6 µM (inactive). For the same compound, the IC50 [19] was > 59.6 µM (inactive), the IC50 [20] was > 100 µM (inactive) and the IC50 [21] was 30.2 µM (active). For the same compound, the IC50 [22] was > 80 µM (inactive) and the IC50 [23] was > 59.6 µM (inactive).
In the case of `Cc1ccc(-c2cnc3c(Cl)c(C)nn3c2)cc1`, the AC50 [24] is reported as 8.19 µM (active), the AC50 [25] is reported as 31.5 µM (active) and the AC50 [26] is reported as 40.8 µM (active). For the same compound, the AC50 [27] was 7.53 µM (active) and the AC50 [28] was 5.87 µM (active).
With `O=C(CSc1ccc(Br)cc1)N1CCN(C(=O)c2ccco2)CC1` the IC50 [29] was > 80 µM (inactive).
With `Cc1cccc(N2C(=O)/C(=C\c3ccc(C(=O)O)cc3)c3ccccc3C2=O)c1` the IC50 [30] was 6.45 µM (active) and the IC50 [31] was > 100 µM (inactive).
For `COc1cc(/C=C2\SC(N)=NC2=O)ccc1OCC(=O)Nc1ccc(C)cc1`, the IC50 [32] was 28.3 µM (inactive).
In the case of `C/C(=C\c1ccccc1)CN1CCN(c2ccccc2)CC1`, the EC50 [33] is reported as 92.5 µM (inactive) and the EC50 [34] is reported as 76.1 µM (inactive).
In the case of `CCC1CCCCN1C(=O)CCS(=O)(=O)c1ccccc1` (stereo not drawn), the IC50 [35] is reported as > 67.6 µM (inactive) and the IC50 [36] is reported as > 67.6 µM (inactive).
With `Cc1cc(C)c(S(=O)(=O)N2CCN(C(=O)C3COc4ccccc4O3)CC2)c(C)c1` (stereo not drawn) the IC50 [29] was > 80 µM (inactive).
With `Cc1c(Cl)c(C(=O)NN=C(S)NCc2ccco2)nn1C` the IC50 [3] was > 122 µM (inactive).
For `CC(C)n1cc(/C=N/Nc2ccc(Cl)c(C(=O)O)c2)c2ccccc21`, the IC50 [8] was > 66.6 µM (inactive), the IC50 [18] was > 59.6 µM (inactive) and the IC50 [19] was > 59.6 µM (inactive). For the same compound, the IC50 [37] was 41.8 µM (active), the IC50 [10] was 3.26 µM (active) and the IC50 [38] was > 50 µM (inactive). For the same compound, the IC50 [39] was 102 µM (active) and the IC50 [23] was > 59.6 µM (inactive).
